The values that follow come from patent US11753418B2, “Compounds for the modulation of Myc activity” (Syros Pharmaceuticals, Inc., priority 2015, dated 2023).

In assay [1] the test system is human small lung cancer cell line H2171. The assay can be described thus: Cell Viability Assay (ATPlite). The assay is classed as cell-based. The note with it: NCI-H2171, 72 h, H2171 cells, incubated for three days, ATPlite readout. In short, it runs like this: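 H2171 cells were plated at 20,000 cells/mL and treated right away with compound as a 10-point dose response from DMSO stocks. After three days at 37 °C, viability was measured as ATP content by ATPlite luminescence after 15 min at room temperature.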

Another assay deals with T1, c-Myc/Max/Ebox DNA (Homo sapiens, UniProt P01106).
T1 construct: his6 (cleaved yes)
T1 sequence (P01106 whole entry): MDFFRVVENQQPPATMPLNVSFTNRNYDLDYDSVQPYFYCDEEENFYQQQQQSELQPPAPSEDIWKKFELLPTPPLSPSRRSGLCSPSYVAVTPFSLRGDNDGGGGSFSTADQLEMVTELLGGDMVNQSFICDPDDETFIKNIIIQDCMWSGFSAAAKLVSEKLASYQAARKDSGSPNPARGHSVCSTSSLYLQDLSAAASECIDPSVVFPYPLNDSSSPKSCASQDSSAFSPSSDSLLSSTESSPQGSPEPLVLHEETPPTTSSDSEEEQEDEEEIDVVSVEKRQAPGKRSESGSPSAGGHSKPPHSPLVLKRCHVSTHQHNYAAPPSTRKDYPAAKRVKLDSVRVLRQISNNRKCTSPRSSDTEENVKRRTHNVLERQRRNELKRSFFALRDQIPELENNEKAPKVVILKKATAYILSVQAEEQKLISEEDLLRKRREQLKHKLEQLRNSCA
The assay can be described thus: c-Myc/Max/Ebox DNA AlphaScreen Assay. In kind it is binding. The note with it: free c-Myc 20 nM, his6-Max 5 nM, biotinylated Ebox oligo 10 nM, 2 hour incubation. The gist of the method: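 Tag-free c-Myc (20 nM final) and biotinylated Ebox DNA (10 nM final) met compound first, then his6-Max was added; 2 h incubation in pH 8.0 HEPES buffer (150 mM NaCl, BSA, Tween20, glycogen, DTT), DMSO ≤2%. Ternary complex read as AlphaScreen signal between Ni-chelate acceptor and streptavidin donor beads.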

In general, IC50 refers to the concentration needed to halve the response being measured. Lower therefore signals greater potency. Take `C[C@H]1Cc2c(sc(NC(=O)CCN[C@@H]3C[C@H]4CNC[C@H]4C3)c2-c2nc3cnccc3s2)CN1` [Compound 247, N—((S)-5-methyl-3-(thiazolo[4,5-c]pyridin-2-yl)-4,5,6,7-tetrahydrothieno[2,3-c]pyridin-2-yl)-3-(((3aR,5s,6aS)-octahydrocyclopenta[c]pyrrol-5-yl)amino)propanamide]: the IC50 is below 500 nM in assay [1] and 5000 to 25000 nM against c-Myc/Max/Ebox DNA.

On to `C[15NH]CCC(=O)Nc1sc2c(c1-c1nc3cnccc3s1)CCNC2` [Compound 248, 3-(Methylamino)-N-(3-(thiazolo[4,5-c]pyridin-2-yl)-4,5,6,7-tetrahydrothieno[2,3-c]pyridin-2-yl)propanamide], for which the IC50 (in assay [1]; against c-Myc/Max/Ebox DNA) was below 500 nM throughout.

As to `C[C@H]1NCCc2c1sc(NC(=O)CCN[C@@H]1C[C@H]3CNC[C@H]3C1)c2-c1nc2cnccc2s1` [Compound 249, N—((R)-7-methyl-3-(thiazolo[4,5-c]pyridin-2-yl)-4,5,6,7-tetrahydrothieno[2,3-c]pyridin-2-yl)-3-(((3aR,5s,6aS)-octahydrocyclopenta[c]pyrrol-5-yl)amino)propanamide], the half-maximal inhibitory concentration (IC50) (in assay [1]; on c-Myc/Max/Ebox DNA) was below 500 nM each time.

For the compound `C[C@@H]1Cc2c(sc(NC(=O)CCN[C@@H]3C[C@H]4CNC[C@H]4C3)c2-c2nc3cnccc3s2)CN1` [Compound 250, N—((R)-5-methyl-3-(thiazolo[4,5-c]pyridin-2-yl)-4,5,6,7-tetrahydrothieno[2,3-c]pyridin-2-yl)-3-(((3aR,5s,6aS)-octahydrocyclopenta[c]pyrrol-5-yl)amino)propanamide], the half-maximal inhibitory concentration (IC50) in assay [1] was below 500 nM; against c-Myc/Max/Ebox DNA, 500 to 5000 nM.

Turning to `CCC(C)NCCC(=O)[15NH]c1sc2c(c1-c1nc3cnccc3s1)CCNC2` (stereo not shown) [Compound 251, 3-(sec-Butylamino)-N-(3-(thiazolo[4,5-c]pyridin-2-yl)-4,5,6,7-tetrahydrothieno[2,3-c]pyridin-2-yl)propan-^15N-amide], the IC50 (in assay [1]; against c-Myc/Max/Ebox DNA) was below 500 nM each time.
